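96-well plates; 48 h exposure; 5 concentrations. Endpoints by linear interpolation between flanking doses. Not reached: highest tested concentration assigned. Abbreviation: GI50, concentration required for 50% inhibition of growth. TGI: total growth inhibition.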
Columns and labels:
Assay in all cases: NCI tumour cell line growth inhibition, 48 h
SNB-75 CNS = test system: SNB-75 CNS
M14 melanoma = test system: M14 melanoma
SF-295 CNS = test system: SF-295 CNS
PC-3 prostate = test system: PC-3 prostate
MCF7 breast = test system: MCF7 breast
NCI-H460 lung = test system: NCI-H460 lung
MALME-3M melanoma = test system: MALME-3M melanoma
NCI-H23 lung = test system: NCI-H23 lung
RXF 393 renal = test system: RXF 393 renal
HS 578T breast = test system: HS 578T breast
DU-145 prostate = test system: DU-145 prostate
HCT-15 colon = test system: HCT-15 colon
HCT-116 colon = test system: HCT-116 colon
OVCAR-8 ovarian = test system: OVCAR-8 ovarian
786-0 renal = test system: 786-0 renal
SNB-19 CNS = test system: SNB-19 CNS
SF-539 CNS = test system: SF-539 CNS
SK-MEL-2 melanoma = test system: SK-MEL-2 melanoma
SK-MEL-5 melanoma = test system: SK-MEL-5 melanoma
OVCAR-4 ovarian = test system: OVCAR-4 ovarian
SW-620 colon = test system: SW-620 colon
HOP-62 NSCLC = test system: HOP-62 NSCLC
A549 NSCLC = test system: A549 NSCLC
ACHN renal = test system: ACHN renal
OVCAR-5 ovarian = test system: OVCAR-5 ovarian
A498 renal = test system: A498 renal
UACC-257 melanoma = test system: UACC-257 melanoma
UACC-62 melanoma = test system: UACC-62 melanoma
SR leukemia = test system: SR leukemia
SN12C renal = test system: SN12C renal
T-47D breast = test system: T-47D breast
KM12 colon = test system: KM12 colon
MDA-MB-435 = test system: MDA-MB-435
HOP-92 NSCLC = test system: HOP-92 NSCLC
HL-60(TB) leukemia = test system: HL-60(TB) leukemia
HCC-2998 colon = test system: HCC-2998 colon
BT-549 breast = test system: BT-549 breast
CAKI-1 renal = test system: CAKI-1 renal
RPMI-8226 leukemia = test system: RPMI-8226 leukemia
LOX IMVI melanoma = test system: LOX IMVI melanoma
UO-31 renal = test system: UO-31 renal
TK-10 renal = test system: TK-10 renal
MOLT-4 leukemia = test system: MOLT-4 leukemia
COLO 205 colon = test system: COLO 205 colon
IGROV1 ovarian = test system: IGROV1 ovarian
HT29 colon = test system: HT29 colon
EKVX NSCLC = test system: EKVX NSCLC
NCI-H522 lung = test system: NCI-H522 lung
SF-268 CNS = test system: SF-268 CNS
K-562 leukemia = test system: K-562 leukemia
NCI/ADR-RES ovarian = test system: NCI/ADR-RES ovarian
CCRF-CEM leukemia = test system: CCRF-CEM leukemia
SK-OV-3 ovarian = test system: SK-OV-3 ovarian
SK-MEL-28 melanoma = test system: SK-MEL-28 melanoma
NCI-H226 lung = test system: NCI-H226 lung
U251 CNS = test system: U251 CNS
MDA-MB-231 breast = test system: MDA-MB-231 breast

## Cn1ccnc1C(=O)/C=C/c1ccc(NC(=O)c2ccc(F)cc2)cc1
SNB-75 CNS
  GI50: 1230 nM
  TGI: 28.7 µM
M14 melanoma
  GI50: 8.52 µM
  TGI: > 33.3 µM
SF-295 CNS
  GI50: 8.15 µM
  TGI: > 33.3 µM
PC-3 prostate
  GI50: 5 µM
  TGI: > 33.3 µM
MCF7 breast
  GI50: 1640 nM
  TGI: > 33.3 µM
NCI-H460 lung
  GI50: 1790 nM
  TGI: 7.85 µM
MALME-3M melanoma
  GI50: 18.1 µM
  TGI: > 33.3 µM
NCI-H23 lung
  GI50: 5.89 µM
  TGI: > 33.3 µM
RXF 393 renal
  GI50: 3.33 µM
  TGI: 15.3 µM
HS 578T breast
  GI50: 7.06 µM
  TGI: > 33.3 µM
DU-145 prostate
  GI50: 1330 nM
  TGI: > 33.3 µM
HCT-15 colon
  GI50: 1380 nM
  TGI: 12.7 µM
HCT-116 colon
  GI50: 1470 nM
  TGI: 12.9 µM
OVCAR-8 ovarian
  GI50: 5.88 µM
  TGI: > 33.3 µM
786-0 renal
  GI50: 6.82 µM
  TGI: > 33.3 µM
SNB-19 CNS
  GI50: 4.96 µM
  TGI: > 33.3 µM
SF-539 CNS
  GI50: 2500 nM
  TGI: 10.5 µM
SK-MEL-2 melanoma
  GI50: 7.96 µM
  TGI: > 33.3 µM
SK-MEL-5 melanoma
  GI50: 17.6 µM
  TGI: > 33.3 µM
OVCAR-4 ovarian
  GI50: 6.37 µM
  TGI: > 33.3 µM
SW-620 colon
  GI50: 1390 nM
  TGI: 8.51 µM
HOP-62 NSCLC
  GI50: 5.39 µM
  TGI: 26.8 µM
A549 NSCLC
  GI50: 6.75 µM
  TGI: > 33.3 µM
ACHN renal
  GI50: 4.85 µM
  TGI: 11.8 µM
OVCAR-5 ovarian
  GI50: 6.3 µM
  TGI: > 33.3 µM
A498 renal
  GI50: 5.68 µM
  TGI: 17.1 µM
UACC-257 melanoma
  GI50: 17.9 µM
  TGI: > 33.3 µM
UACC-62 melanoma
  GI50: 9.5 µM
  TGI: > 33.3 µM
SR leukemia
  GI50: 903 nM
  TGI: > 33.3 µM
SN12C renal
  GI50: 6.56 µM
  TGI: > 33.3 µM
T-47D breast
  GI50: 2020 nM
  TGI: > 33.3 µM
KM12 colon
  GI50: 1220 nM
  TGI: 10.9 µM
MDA-MB-435
  GI50: 3.84 µM
  TGI: > 33.3 µM
HOP-92 NSCLC
  GI50: 8.15 µM
  TGI: > 33.3 µM
HL-60(TB) leukemia
  GI50: 2900 nM
  TGI: 31.8 µM
HCC-2998 colon
  GI50: 6.99 µM
  TGI: > 33.3 µM
BT-549 breast
  GI50: 1530 nM
  TGI: 24.7 µM
CAKI-1 renal
  GI50: 1630 nM
  TGI: > 33.3 µM
RPMI-8226 leukemia
  GI50: 1150 nM
  TGI: 12.3 µM
LOX IMVI melanoma
  GI50: 1310 nM
  TGI: 5.55 µM
UO-31 renal
  GI50: 3.43 µM
  TGI: > 33.3 µM
TK-10 renal
  GI50: 10.3 µM
  TGI: > 33.3 µM
MOLT-4 leukemia
  GI50: 6.36 µM
  TGI: > 33.3 µM
COLO 205 colon
  GI50: 3.39 µM
  TGI: 17.8 µM
IGROV1 ovarian
  GI50: 3.72 µM
  TGI: > 33.3 µM
HT29 colon
  GI50: 2220 nM
  TGI: > 33.3 µM
EKVX NSCLC
  GI50: 6.27 µM
  TGI: > 33.3 µM
NCI-H522 lung
  GI50: 5.52 µM
  TGI: 14.2 µM
SF-268 CNS
  GI50: 4.94 µM
  TGI: > 33.3 µM
K-562 leukemia
  GI50: 1100 nM
  TGI: > 33.3 µM
NCI/ADR-RES ovarian
  GI50: 5.28 µM
  TGI: > 33.3 µM
CCRF-CEM leukemia
  GI50: 1460 nM
  TGI: > 33.3 µM
SK-OV-3 ovarian
  GI50: 8.29 µM
  TGI: > 33.3 µM
SK-MEL-28 melanoma
  GI50: 10.1 µM
  TGI: > 33.3 µM
NCI-H226 lung
  GI50: 4.76 µM
  TGI: > 33.3 µM
U251 CNS
  GI50: 2920 nM
  TGI: > 33.3 µM
MDA-MB-231 breast
  GI50: 6.54 µM
  TGI: > 33.3 µM

— PubChem BioAssay (NCI)
